# What was measured:
# [1] = Stability of LM030 formulations stored at 50° C. for 7 days; format: physicochemical; details: summary of Table 7
# [2] = General solubility and stability properties of LM030; format: physicochemical
# From the text: Difficulties in formulating LM030 for topical administration are described in U.S. Pat. No. 8,680,054. In particular, the solubility and stability properties of LM030 create challenges in developing a topical formulation with adequate storage stability that is also able to provide an effective amount of active agent available for skin penetration [See col 4, lines 16-23].
smiles,measurement,setting,value
CC[C@H](C)[C@@H]1NC(=O)[C@H](Cc2ccc(O)cc2)N(C)C(=O)[C@H]([C@@H](C)CC)N2C(=O)[C@H](CC[C@H]2O)NC(=O)[C@H](CC(C)C)NC(=O)[C@@H](NC(=O)[C@H](CCC(N)=O)NC(=O)C(C)C)[C@@H](C)OC1=O [LM030],stability in the presence of aqueous solutions,[1],poor stability
same,solubility in lipophilic excipients,[2],low
same,solubility in polar organic solvents,[2],good
same,solubility in water and aqueous buffers,[2],moderate
same,stability in polar organic solvents,[2],poor
